Assay results: patent US12698258B2, “Cystine cationic lipids” (Translate Bio, Inc., priority 2019, dated 2026)

System: hEPO protein expression
Experiment: In vivo expression of hEPO after IM injection of lipid nanoparticle formulations with hEPO mRNA
Parameters: species or system BALB/c mice
Conditions: lipid nanoparticles comprising the compound and hEPO mRNA; single intramuscular injection, 0.1 ug; hEPO in sera by ELISA; 24 hours after administration
Experimental: In embodiments, cationic lipids described herein can be used in the preparation of lipid nanoparticles according to methods known in the art. For example, suitable methods include methods described in international Publication No. WO 2018/089801, which is hereby incorporated by reference in its entirety.
Lipid nanoparticle formulations comprising human erythropoietin (hEPO) mRNA, Cationic Lipid, DMG-PEG2000, Cholesterol and DOPE were administered intramuscularly to study mRNA delivery and resultant hEPO expression. Male BALB/c mice at 6-8 weeks old are given a single injection of the LNP formulations into the gastrocnemius muscle at a dosage level of 0.1 ug. Blood samples were collected at 6 and 24 hours post-dose. hEPO protein expression levels were measured in the sera samples by ELISA and presented in FIG. 1.

Question: With CCCCCCCC(C)COC(=O)CCN(CCC(=O)OCCCCCCCC(C)C)[C@@H](CSSC[C@@H](C(=O)OC(C)CN(CCCN(C)C)CCCN(C)C)N(CCC(=O)OCCCCCCCC(C)C)CCC(=O)OCC(C)CCCCCCC)C(=O)OC(C)CN(CCCN(C)C)CCCN(C)C (some centres unmarked) [Compound 3] as the molecule, how does the “in vivo protein production resulting from the delivery of mRNA (FIG. 1)” value read?
Answer: Its value is “high levels of in vivo protein production”.

Question: With CCCCCCCC(C)COC(=O)CCN(CCC(=O)OCCCCCCCC(C)C)[C@@H](CSSC[C@@H](C(=O)OCCOCCOCCOC)N(CCC(=O)OCCCCCCCC(C)C)CCC(=O)OCC(C)CCCCCCC)C(=O)OCCOCCOCCOC (some centres unmarked) [Compound 4] as the molecule, how does the “in vivo protein production resulting from the delivery of mRNA (FIG. 1)” value read?
Answer: The value was “high levels of in vivo protein production”.
